Where a name gives a salt, the structure may show the parent alone.
Tests used:
[1] = system: HiBiT-tagged Target C protein in K562 cells; assay: HiBiT protein abundance assay, Target C; format: cell-based, human; conditions: HiBiT-modified K562 cells, 24 hours, luminescence
How it was run: (§1)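 K562 lines with the endogenous target HiBiT-tagged, seeded in IMDM+1% FBS, got a 10-point 3-fold dilution series (top final 10 μM, DMSO ≤0.25%) for 24 hours at 37° C. Lytic LgBiT luminescence was normalized against unmodified-K562 and DMSO-only controls, and IC50 was interpolated at 50% from a four-parameter logistic fit.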

Target C CJ mRNA = assay: Gene panel canonical junction qPCR assay, Target C; format: cell-based; conditions: Homo sapiens, larger gene panel, read-out: Target C IC50 (decrease in CJ mRNA levels)
How it was run: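 A673 or K562 cells treated 24 h with 11-point 3-fold dilutions (top 10 µM, ≤0.25% DMSO) at 37 °C. Canonical exon-junction mRNA measured by probe-based RT-qPCR, normalized to GAPDH, GUSB or PPIA and DMSO (2^−ΔΔCt), converted to percent response over a fixed ΔCt window; IC50 from 4-parameter fit.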

[2] = system: HiBiT-tagged MYB protein in K562 cells; assay: HiBiT protein abundance assay, MYB; format: cell-based, human; conditions: HiBiT-modified K562 cells, 24 hours, luminescence
How it was run: as §1

IC50 [1] [nM]	IC50 (Target C CJ mRNA) [nM]	IC50 [2] [nM]	SMILES
1000 to 10000	1000 to 10000	1000 to 10000	Cc1cn2nc(-c3cc(=O)n4cc(N5CCNC6(CC6)C5)sc4n3)cc(C)c2n1 [Compound 211, 7-(2,8-dimethylimidazo[1,2-b]pyridazin-6-yl)-2-(4,7-diazaspiro[2.5]octan-7-yl)-5H-thiazolo[3,2-a]pyrimidin-5-one]
> 10000	> 10000	> 10000	Cn1cc2cc(-n3cnc4nc(N5CCNCC5)sc4c3=O)ccc2n1 [Compound 225, 6-(2-methyl-2H-indazol-5-yl)-2-(piperazin-1-yl)thiazolo[4,5-d]pyrimidin-7(6H)-one]
1000 to 10000	1000 to 10000	100 to 1000	Cc1cn2nc(-c3cc4ncn(C5CCNCC5)c(=O)c4s3)cc(C)c2n1 [Compound 238, 6-(2,8-dimethylimidazo[1,2-b]pyridazin-6-yl)-3-(piperidin-4-yl)thieno[3,2-d]pyrimidin-4(3H)-one]
100 to 1000	1000 to 10000	100 to 1000	Cc1cn2cc(-c3cc4ncn(N5CCNCC5)c(=O)c4s3)cc(F)c2n1 [Compound 269, 6-{8-fluoro-2-methylimidazo[1,2-a]pyridin-6-yl}-3-(piperazin-1-yl)thieno[3,2-d]pyrimidin-4-one]
> 10000	> 10000	> 10000	Cc1cn2cc(-c3cn4c(=O)cc(N5CCNCC5)nc4s3)cc(F)c2n1 [Compound 213, 2-(8-fluoro-2-methylimidazo[1,2-a]pyridin-6-yl)-7-(piperazin-1-yl)-5H-thiazolo[3,2-a]pyrimidin-5-one]
1000 to 10000	1000 to 10000	1000 to 10000	Cc1cn2cc(-c3cc4ncn(C5CCNCC5)c(=O)c4s3)ncc2n1 [Compound 264]
> 10000	> 10000	> 10000	Cc1cn2cc(-c3cc(=O)n4cc(N5CCNC6(CC6)C5)sc4n3)cc(F)c2n1 [Compound 207, 7-(8-fluoro-2-methylimidazo[1,2-a]pyridin-6-yl)-2-(4,7-diazaspiro[2.5]octan-7-yl)-5H-thiazolo[3,2-a]pyrimidin-5-one]
1000 to 10000	1000 to 10000	1000 to 10000	Cc1cn2cc(-c3nn4c(=O)cc(N5CCN(C)CC5)nc4s3)cc(F)c2n1 [Compound 217, 2-(8-fluoro-2-methylimidazo[1,2-a]pyridin-6-yl)-7-(4-methylpiperazin-1-yl)-5H-[1,3,4]thiadiazolo[3,2-a]pyrimidin-5-one]
1000 to 10000	1000 to 10000	1000 to 10000	Cc1cn2nc(-c3cn4c(=O)cc(N5CCNC6(CC6)C5)nc4s3)cc(C)c2n1 [Compound 212, 2-(2,8-dimethylimidazo[1,2-b]pyridazin-6-yl)-7-(4,7-diazaspiro[2.5]octan-7-yl)-5H-thiazolo[3,2-a]pyrimidin-5-one]
100 to 1000	100 to 1000	100 to 1000	Cc1cn2nc(-c3cc4ncn(C5CCNCC5)c(=O)c4s3)cc2c(C)n1 [Compound 262]
100 to 1000	1000 to 10000	100 to 1000	Cc1cc(-c2cc3ccn(C4CCNCC4)c(=O)c3s2)cc2cn(C)nc12 [Compound 805, 2-(2,7-dimethyl-2H-indazol-5-yl)-6-(piperidin-4-yl)thieno[2,3-c]pyridin-7(6H)-one]
100 to 1000	100 to 1000	100 to 1000	Cc1cn2cc(-n3cnc4nc(N5CCNCC5)sc4c3=O)cc(F)c2n1 [Compound 226, 6-(8-fluoro-2-methylimidazo[1,2-a]pyridin-6-yl)-2-(piperazin-1-yl)thiazolo[4,5-d]pyrimidin-7(6H)-one]
100 to 1000	1000 to 10000	100 to 1000	Cc1cn2cc(-c3cc4ncn([C@H]5CCN[C@H](C)C5)c(=O)c4s3)cc(F)c2n1 (relative stereo) [Compound 277, 6-{8-fluoro-2-methylimidazo[1,2-a]pyridin-6-yl}-3-[(trans)-2-methylpiperidin-4-yl]thieno[3,2-d]pyrimidin-4-one]
1000 to 10000	1000 to 10000	1000 to 10000	Cn1cc2cc(-c3nc4ncn(C5CCNCC5)c(=O)c4s3)c(O)cc2n1 [Compound 253, 2-(6-hydroxy-2-methyl-2H-indazol-5-yl)-6-(piperidin-4-yl)thiazolo[4,5-d]pyrimidin-7(6H)-one, hydrochloride]
1000 to 10000	1000 to 10000	1000 to 10000	Cc1cc(-c2nn3c(=O)cc(N4CCN(C)CC4)nc3s2)cc2cn(C)nc12 [Compound 210, 2-(2,7-dimethyl-2H-indazol-5-yl)-7-(4-methylpiperazin-1-yl)-5H-[1,3,4]thiadiazolo[3,2-a]pyrimidin-5-one]

SMILES	IC50 [1] [nM]	IC50 (Target C CJ mRNA) [nM]	IC50 [2] [nM]
Cc1cn2cc(-n3cnc4nc(N(C)C5CC(C)(C)NC(C)(C)C5)sc4c3=O)cc(F)c2n1 [Compound 227, 6-(8-fluoro-2-methylimidazo[1,2-a]pyridin-6-yl)-2-(methyl(2,2,6,6-tetramethylpiperidin-4-yl)amino)thiazolo[4,5-d]pyrimidin-7(6H)-one, formate]	> 10000	> 10000	> 10000
Cc1cn2cc(-c3nn4c(=O)cc(N(C)C5CC(C)(C)NC(C)(C)C5)nc4s3)cc(F)c2n1 [Compound 215, 2-(8-fluoro-2-methylimidazo[1,2-a]pyridin-6-yl)-7-(methyl(2,2,6,6-tetramethylpiperidin-4-yl)amino)-5H-[1,3,4]thiadiazolo[3,2-a]pyrimidin-5-one]	> 10000	1000 to 10000	1000 to 10000

Source: patent US20240366612A1, “COMPOUNDS AND METHODS FOR MODULATING NUCLEIC ACID SPLICING” (REMIX THERAPEUTICS INC., priority 2021, published 2024)
